Converted amounts (≈) assume the structure as drawn. “And” between values parts separate entries of the source, which are not always exact repeats. Equal entries are not always repeated. “Also recorded” adds a separate entry of the source. Where two headings read alike, the source gives them in different places. Marks after values point to notes of the source that are not given here.
Legend:
[1] = test system: biotinylated proteome of M. tuberculosis; assay type: cell-based, M. tuberculosis H37Ra
E. coli K-12 = test: Intracellular accumulation of antibiotics; assay type: cell-based
HepG2 = conditions: human, 72 h
Vero = conditions: African green monkey, 72 h
E. faecalis (V583) = test: MIC, broth microdilution, E. faecalis; conditions: Enterococcus faecalis
P. aeruginosa (PA14) = test: MIC, broth microdilution, P. aeruginosa; conditions: Pseudomonas aeruginosa
M. africanum = test: microbe, parasite or virus in culture; assay type: cell-based
M. tuberculosis HN878 = test: microbe, parasite or virus in culture; assay type: cell-based; conditions: Mycobacterium tuberculosis
A. baumannii (AB5075) = test: MIC, broth microdilution, A. baumannii; conditions: Acinetobacter baumannii
M. tuberculosis (2) XDR = test: microbe, parasite or virus in culture; assay type: cell-based; conditions: Mycobacterium tuberculosis
M. abscessus (4) = test: MIC against M. abscessus; assay type: cell-based; conditions: Mycobacteroides abscessus
[2] = target: E. coli biotin synthase (EcBioB) (Escherichia coli, UniProt P12996); test: biochemical; assay type: biochemical; conditions: for IC50: 5 μM EcBioB dimer, 10 μM DTB, 100 μM SAM, single-turnover
E. coli biotin synthase (EcBioB), sequence (P12996 whole entry): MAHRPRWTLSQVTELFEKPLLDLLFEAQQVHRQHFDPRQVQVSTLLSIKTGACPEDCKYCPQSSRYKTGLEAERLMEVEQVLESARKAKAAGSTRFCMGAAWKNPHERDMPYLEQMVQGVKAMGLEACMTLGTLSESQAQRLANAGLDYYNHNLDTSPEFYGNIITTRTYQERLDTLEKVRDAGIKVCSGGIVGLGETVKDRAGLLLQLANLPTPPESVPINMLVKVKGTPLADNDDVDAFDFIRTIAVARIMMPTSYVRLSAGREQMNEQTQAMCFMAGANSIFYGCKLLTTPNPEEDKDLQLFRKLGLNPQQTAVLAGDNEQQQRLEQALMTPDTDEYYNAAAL

M. tuberculosis (6) MDR+ = test: microbe, parasite or virus in culture; assay type: cell-based; conditions: Mycobacterium tuberculosis
S. aureus (USA300) = test: MIC, broth microdilution, S. aureus; conditions: Staphylococcus aureus
[3] = test system: M. tuberculosis (8) drug-sensitive clinical isolates; test: microbe, parasite or virus in culture; assay type: cell-based; conditions: Mycobacterium tuberculosis
M. tuberculosis Erdman = test: microbe, parasite or virus in culture; assay type: cell-based; conditions: Mycobacterium tuberculosis
M. tuberculosis (7) MDR = test: microbe, parasite or virus in culture; assay type: cell-based; conditions: Mycobacterium tuberculosis
[4] = test system: M. tuberculosis strain carrying two copies of the bioB gene; test: MIC against BioB merodiploid strain; assay type: cell-based
M. avium complex (3) = test: MIC against M. avium complex; assay type: cell-based; conditions: Mycobacterium avium
M. smegmatis mc^2155 = test: MIC90 against M. smegmatis; assay type: cell-based; conditions: ≥90% growth inhibition
E. coli ATCC 25922 = test: MIC, broth microdilution, E. coli; conditions: Escherichia coli, ATCC25922
M. tuberculosis H37Rv [5] = assay type: cell-based
M. bovis BCG = test: microbe, parasite or virus in culture; assay type: cell-based
M. tuberculosis H37Rv [6] = test: MIC against M. tuberculosis H37Rv; assay type: cell-based, Mycobacterium tuberculosis
[7] = test system: non-tuberculosis mycobacteria, gram-positive and gram-negative pathogens; test: organism not typed; assay type: cell-based
[8] = for t1/2 (i.v.): 5 mg/kg i.v., terminal elimination half-life; for F (oral bioavailability) / AUC0–∞ (i.v.) / CL (i.v.) / Vd (i.v.) / AUC0–∞ (p.o.): mouse, in vivo; for AUC0–∞ (i.v.) / CL (i.v.) / Vd (i.v.): iv, 5 mg/kg; for AUC0–∞ (p.o.): po, 25 mg/kg
[9] = test system: gram-positive and gram-negative bacteria or fungi; conditions: cited from earlier work
[10] = target: MtBPL (M. tuberculosis biotin protein ligase) (Mycobacterium tuberculosis, UniProt I6YFP0); assay type: binding
MtBPL (M. tuberculosis biotin protein ligase), sequence (I6YFP0 whole entry, looked up): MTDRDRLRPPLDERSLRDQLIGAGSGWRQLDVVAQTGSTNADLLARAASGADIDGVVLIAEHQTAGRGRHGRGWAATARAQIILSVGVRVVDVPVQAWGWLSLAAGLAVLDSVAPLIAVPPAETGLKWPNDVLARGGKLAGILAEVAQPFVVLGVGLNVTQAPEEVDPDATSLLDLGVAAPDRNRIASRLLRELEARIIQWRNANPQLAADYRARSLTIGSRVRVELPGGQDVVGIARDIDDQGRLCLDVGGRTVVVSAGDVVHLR

[11] = test system: M. tuberculosis infection; conditions: cited from earlier work
mycobacteria = conditions: cited from earlier work
[12] = test system: biotin pathway intermediates (vitamers); conditions: acidomycin added to culture media; cited from earlier work

For Nc1ncnc2c1ncn2[C@@H]1O[C@H](CNS(=O)(=O)NC(=O)CCCC[C@@H]2SC[C@@H]3NC(=O)N[C@@H]32)[C@@H](O)[C@H]1O [Bio-AMS, 5ʹ-[N-(D-biotinoyl)sulfamoyl]amino-5ʹ-deoxyadenosine], the “impact on global protein biotinylation” value [1] was “noticeable decrease in protein band intensity”.
In the case of CO[C@H]1/C=C/O[C@@]2(C)Oc3c(C)c(O)c4c(O)c(c(/C=N/N5CCN(C)CC5)c(O)c4c3C2=O)NC(=O)/C(C)=C\C=C\[C@H](C)[C@H](O)[C@@H](C)[C@@H](O)[C@@H](C)[C@H](OC(C)=O)[C@@H]1C [Rifampicin, reference compound], the “IC/EC Ratio” value (E. coli K-12) is reported as 2.1.
In the case of O=C(O)CCCCCC1NC(=O)CS1 (racemic) [(±)-acidomycin, 6-(4-Oxothiazolidin-2-yl)hexanoic acid], the “EC (greater than 50% inhibition of cell viability)” value (HepG2) is reported as >1000^e μM, the “EC (greater than 50% inhibition of cell viability)” value (Vero) is reported as >1000^e μM and the MIC90 (E. faecalis (V583)) is reported as > 1000 µM. The MIC90 (P. aeruginosa (PA14)) was > 1000 µM, the MIC (M. africanum) was 0.20 µM (≈ 0.0435 µg/mL) and the MIC (M. africanum; Mycobacterium tuberculosis) was 0.2 µM (≈ 0.0435 µg/mL). For the same compound, the MIC (M. tuberculosis HN878) was 0.6 µM (≈ 0.13 µg/mL), the MIC90 (A. baumannii (AB5075)) was > 1000 µM and the MIC (M. tuberculosis (2) XDR) was 0.096 to 1.2 µM (≈ 0.0209 to 0.261 µg/mL). The MIC (M. abscessus (4)) was > 100 µM, the Ki [2] was 2000 ± 1300 nM and the modality of inhibition [2] was “competitive inhibitor; also recorded: competitive inhibition”. The MIC (M. tuberculosis (6) MDR+) was 0.2 to 4.8 µM (≈ 0.0435 to 1.04 µg/mL), the MIC90 (S. aureus (USA300)) was > 1000 µM and the MIC [3] was 0.096 to 6.2 µM (≈ 0.0209 to 1.35 µg/mL). The MIC (M. tuberculosis Erdman) was 1.56 µM (≈ 0.339 µg/mL), the MIC (M. tuberculosis (7) MDR) was 0.6 to 6.2 µM (≈ 0.13 to 1.35 µg/mL) and the “change of MIC in BioB merodiploid versus H37Rv” value [4] was “increase in the MIC”. For the same compound, the MIC (M. avium complex (3)) was > 100 µM, the “Accumulation, +biotin” value (M. tuberculosis H37Ra) was 1150 ± 40 nmol/10^12 CFUs and the “Accumulation, −biotin” value (M. tuberculosis H37Ra) was 1300 ± 400 nmol/10^12 CFUs. For the same compound, the “Intracellular Concentration, −biotin” value (M. tuberculosis H37Ra) was 2600 ± 800 µM, the “fold higher accumulation in M. tuberculosis than in E. coli” value (M. tuberculosis H37Ra) was “approximately 30 fold” and the “impact of exogenous biotin on cellular accumulation in M. tuberculosis” value (M. tuberculosis H37Ra) was “little impact”. The MIC90 (M. smegmatis mc^2155) was 10^d μM, the MIC90 (E. coli ATCC 25922) was > 1000 µM and the “effect of KAPA supplementation on growth inhibition” value (M. tuberculosis H37Rv [5]) was “no effect”. The “effect of biotin supplementation on growth inhibition” value (M. tuberculosis H37Rv [5]) was “completely rescued”, the “shift of MIC by DTB supplementation” value (M. tuberculosis H37Rv [5]) was “approximately two-fold” and the MIC (M. bovis BCG) was 1.30 µM (≈ 0.282 µg/mL). For the same compound, the MIC (M. bovis BCG; Mycobacterium tuberculosis variant bovis BCG, BCG) was 1.3 µM (≈ 0.282 µg/mL), the MIC (M. tuberculosis H37Rv [6]) was 1.56 µM (≈ 0.339 µg/mL) and the “effect on M. tuberculosis viability” value (M. tuberculosis H37Rv [6]) was “bacteriostatic”. For the same compound, the “fold difference in MIC relative to (S)-(−)-acidomycin” value (M. tuberculosis H37Rv [6]) was “about 2.5 fold”, the MIC (M. tuberculosis H37Rv [6]; Mycobacterium tuberculosis, H37RV) was 1.6 µM (≈ 0.348 µg/mL) and the “activity toward representative gram-negative and gram-positive pathogens” value [7] was “inactive”. For the same compound, the “IC/EC Ratio” value (E. coli K-12) was 1.6 and 1.6 ± 0.4, the “Intracellular Concentration, −biotin” value (E. coli K-12) was 80 µM and the “Accumulation, −biotin” value (E. coli K-12; E. coli, 50 μM extracellular) was 80 ± 20 nmol/10^12 CFUs. The “Accumulation, +biotin” value (E. coli K-12; E. coli, 50 μM extracellular, 1 μM biotin) was 61 ± 2 nmol/10^12 CFUs and the “Intracellular Concentration, −biotin” value (E. coli K-12; E. coli, cell volume 1.0 μm^3) was 80 ± 20 µM.
With O=C(O)CCCCC[C@@H]1NC(=O)CS1 [(R)-(+)-acidomycin] the IC50 [2] was > 100000 nM, the “inhibition of EcBioB” value ([2]; at 100 μM) was “less than 30%” and the “t1/2 (i.v.)” value [8] was 19.2 ± 2.4 min. For the same compound, the “F (oral bioavailability)” value [8] was 16 ± 7%, the “AUC0–∞ (i.v.)” value [8] was 2055 ± 564 ng·h/mL and the “CL (i.v.)” value [8] was 40.55 ± 8.03 mL/min/kg. The “Vd (i.v.)” value [8] was 1.12 ± 0.37 L/kg, the “AUC0–∞ (p.o.)” value [8] was 1591 ± 718 ng·h/mL and the MIC (M. tuberculosis H37Rv [6]) was 7.7 µM (≈ 1.67 µg/mL). For the same compound, the “fold difference in MIC relative to (S)-(−)-acidomycin” value (M. tuberculosis H37Rv [6]) was “thirteen-fold less active”.
For O=C(O)CCCCCC1NC(=O)CS1 (stereo not shown) [acidomycin], the “concentration without growth inhibition” value [9] is listed as > 1 mg/mL, the “concentration without growth inhibition” value ([9]; converted value) is listed as > 4.6 mM and the Ki [2] is listed as ~1000 nM. For the same compound, the “production of 5′-deoxyadenosine by BioB” value [2] was “significantly enhanced”, the time-dependent inhibition [2] was “did not exhibit time-dependent inhibition” and the “binding to MtBPL” value [10] was “does not bind to MtBPL”. For the same compound, the “activity against an M. tuberculosis infection in vivo” value [11] was “inactive”, the “increase in inhibitory concentrations after growth in the presence of acidomycin” value (mycobacteria) was “two-fold” and the “concentrations required to inhibit the growth of mycobacteria in vitro” value (mycobacteria; converted value) was 1.2 to 46.0 µM. The “increase of accumulation of biotin pathway intermediates (vitamers)” value [12] was “two- to seventy-fold”, the solubility (physchem) was < 4000 µM and the “difference in whole cell activity, E. coli versus M. tuberculosis” value (M. tuberculosis H37Rv [6]) was > 100 fold. The “susceptibility of NTM strains” value [7] was “intrinsically resistant” and the MIC ([7]; read-out: MICs) was > 1000 µM.
For O=C(O)CCCCC[C@H]1NC(=O)CS1 [(S)-(−)-acidomycin], the IC50 [2] was 13300 ± 1800 nM, the “t1/2 (i.v.)” value [8] was 14.4 ± 0.1 min and the “F (oral bioavailability)” value [8] was 8 ± 1%. The “AUC0–∞ (i.v.)” value [8] was 2116 ± 115 ng·h/mL, the “CL (i.v.)” value [8] was 39.38 ± 2.1 mL/min/kg and the “Vd (i.v.)” value [8] was 0.82 ± 0.05 L/kg. For the same compound, the “AUC0–∞ (p.o.)” value [8] was 890 ± 106 ng·h/mL.
With CN(C)[C@@H]1C(O)=C(C(N)=O)C(=O)[C@@]2(O)C(O)=C3C(=O)c4c(O)cccc4[C@@](C)(O)[C@H]3C[C@@H]12 [Tetracycline, reference compound] the “Accumulation, +biotin” value (M. tuberculosis H37Ra) was 2220 ± 50 nmol/10^12 CFUs, the “Accumulation, −biotin” value (M. tuberculosis H37Ra) was 2200 ± 200 nmol/10^12 CFUs and the “Accumulation, +biotin” value (E. coli K-12) was 1600 ± 100 nmol/10^12 CFUs. For the same compound, the “Accumulation, −biotin” value (E. coli K-12) was 3100 ± 120 nmol/10^12 CFUs.
With CSc1ccc2c(c1)N(CCC1CCCCN1C)c1ccccc1S2 (stereo not shown) [Thioridazine] the “Accumulation, +biotin” value (M. tuberculosis H37Ra) was 5.2 ± 0.4 nmol/10^12 CFUs, the “Accumulation, −biotin” value (M. tuberculosis H37Ra) was 18 ± 1 nmol/10^12 CFUs and the “IC/EC Ratio” value (M. tuberculosis H37Ra) was 0.7 and 0.72 ± 0.04. The “Intracellular Concentration, −biotin” value (M. tuberculosis H37Ra) was 36 ± 2 µM.

Reference: PMC6724193 (ACS infectious diseases, 2019)
